This experiment deals with human LPAR1 (Homo sapiens, UniProt Q92633). Description: LPAR1 intracellular calcium mobilization assay (antagonist mode, FLIPR). Type of experiment: cell-based. To be noted: CHO-K1 EDG2 cells expressing human LPAR1; test compound 0.5 nM to 10 μM pre-incubated 60 minutes at 37° C., then LPA 18:2 at EC80 concentration (100 nM). As for the experimental part:
In vitro LPAR1 activity was measured in an intracellular calcium mobilization assay. CHO-K1 EDG2 cells (DiscoverX cat #93-0644C2) expressing human LPAR1 (NM_001401.3) were seeded in a total volume of 25 μL of Dulbecco's Modification of Eagle's Medium (DMEM) with 10% Fetal Bovine Serum, 1× PenStrepGlutamine, 300 μg/ml Hygromycin, and 800 μg/ml G418 into 384-well tissue culture plate (Grenier #781091) at 15,000 cells/well and incubated at 37° C. overnight. Prior to testing, 25 μL Calcium Loading Dye Component A (FLIPR Calcium 6 Assay Kit Molecular Device # R8190) and 2.5 mM Probenecid (Invitrogen # P36400, prepared fresh) in Hank's Balanced Salt Solution (Corning #21-023-CV), 20 mM HEPES (Corning #25-060-CI), 0.1% Bovine Serum Albumin (Sigma-Aldrich # A7906-500G) was add to the cells for 60 minutes at 37° C.
Agonist dose curves of LPA 18:2 (Avanti Polar Lipids cat #857138, 0.5 nM to 10 μM) were recorded to determine the LPA 18:2 EC80 for subsequent antagonist assays. For agonist dose curves, cells were removed from the incubator 2 hours after dye loading and transferred to the FLIPR Tetra instrument (Molecular Devices, San Jose, CA). Calcium mobilization was monitored for 5 min and 10 μL 6×LPA in HBSS/20 mM Hepes/0.1% bovine serum albumin (BSA) was added to the cells 5 seconds into the assay.
To determine the LPAR1 antagonist activity of test compounds, cells were pre-incubated with test compound at a dose range of 0.5 nM to 10 μM, followed by LPA at EC80 concentration (100 nM). After dye loading, cells were removed from the incubator and 0.3 μL of 200× antagonist was added. Cells were incubated for 60 minutes at 37° C. Antagonist activity was measured on a FLIPR Tetra. Calcium mobilization was monitored for 3.5 minutes and 10 μL 6×EC80 LPA in HBSS, 20 mM HEPES, and 0.1% BSA was added to the cells 5 seconds into the assay. Signal amplitude (Maximum minus minimum) values were plotted against log10 of antagonist concentration using Dose Response Tool (Gilead Sciences Inc.) to determine […].
To assess the antagonistic potential of exemplified compounds […] were determined for Compounds 1 to 66 in the LPAR1 calcium mobilization assay. The compound numbers correspond to the compound numbers in Examples 1 to 18. N/A=not available.
On the technique in general: Calcium flux is commonly read through the fluorescence of an indicator in the cells.
human LPAR1, sequence (Q92633 whole entry): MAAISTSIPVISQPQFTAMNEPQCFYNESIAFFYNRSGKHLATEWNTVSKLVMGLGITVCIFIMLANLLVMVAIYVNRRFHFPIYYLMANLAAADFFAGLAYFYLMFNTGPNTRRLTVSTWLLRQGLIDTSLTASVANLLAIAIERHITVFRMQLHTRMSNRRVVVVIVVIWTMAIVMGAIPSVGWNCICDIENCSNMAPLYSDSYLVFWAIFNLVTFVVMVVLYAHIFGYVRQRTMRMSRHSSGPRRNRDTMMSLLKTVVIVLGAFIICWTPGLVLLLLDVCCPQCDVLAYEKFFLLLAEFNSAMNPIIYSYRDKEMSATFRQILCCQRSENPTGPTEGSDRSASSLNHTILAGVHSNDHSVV
`C[C@@H](OC(=O)Nc1c(-c2ccc(C(=O)Nc3ccncc3)cn2)nnn1C)c1cccnc1Cl` [Compound 1, (R)-1-(2-chloropyridin-3-yl)ethyl (1-methyl-4-(5-(pyridin-4-ylcarbamoyl)pyridin-2-yl)-1H-1,2,3-triazol-5-yl)carbamate]: the EC50 (in general, the concentration needed to bring the measured effect to its halfway point) was 75.8 nM.
Take `C[C@@H](OC(=O)Nc1c(-c2ccc(C(=O)NC34CC(Cl)(C3)C4)cn2)nnn1C)c1cccnc1Cl` [Compound 2, (R)-1-(2-chloropyridin-3-yl)ethyl (4-(5-((3-chlorobicyclo[1.1.1]pentan-1-yl)carbamoyl)pyridin-2-yl)-1-methyl-1H-1,2,3-triazol-5-yl)carbamate]: the concentration for a half-maximal effect (EC50) was found to be 8.1 nM.
Then `C[C@@H](OC(=O)Nc1c(-c2ccc(C(=O)NC3CC(F)(F)C3)cn2)nnn1C)c1cccnc1Cl` [Compound 3, (R)-1-(2-chloro-pyridin-3-yl)-ethyl (4-(5-((3,3-difluoro-cyclobutyl)-carbamoyl)-pyridin-2-yl)-1-methyl-1H-1,2,3-triazol-5-yl)carbamate], with 1420 nM; and `C[C@@H](OC(=O)Nc1c(-c2ccc(C(=O)NC34CC(F)(C3)C4)cn2)nnn1C)c1cccnc1Cl` [Compound 4, (R)-1-(2-chloro-pyridin-3-yl)-ethyl (4-(5-((3-fluorobicyclo-[1.1.1]pentan-1-yl)carbamoyl)-pyridin-2-yl)-1-methyl-1H-1,2,3-triazol-5-yl)carbamate], with 142 nM.
Turning to `C[C@@H](OC(=O)Nc1c(-c2ccc(C(=O)NC34CC(C#N)(C3)C4)cn2)nnn1C)c1cccnc1Cl` [Compound 5, (R)-1-(2-chloro-pyridin-3-yl)-ethyl (4-(5-((3-cyanobicyclo [1.1.1]pentan-1-yl)carbamoyl)-pyridin-2-yl)-1-methyl-1H-1,2,3-triazol-5-yl)carbamate], the half-maximal effective concentration (EC50) was found to be 42.9 nM.
As to `C[C@@H](OC(=O)Nc1c(-c2ccc(C(=O)NC34CC(C(F)F)(C3)C4)cn2)nnn1C)c1cccnc1Cl` [Compound 6], the EC50 came to 56.1 nM.
For the compound `C[C@@H](OC(=O)Nc1c(-c2ccc(C(=O)Nc3cccnc3)cn2)nnn1C)c1cccnc1Cl` [Compound 7, (R)-1-(2-chloro-pyridin-3-yl)-ethyl (1-methyl-4-(5-(pyridin-3-ylcarbamoyl)-pyridin-2-yl)-1H-1,2,3-triazol-5-yl)carbamate], the EC50 worked out at 334 nM.
Take `C[C@@H](OC(=O)Nc1c(-c2ccc(C(=O)NC34CC(C)(C3)C4)cn2)nnn1C)c1cccnc1Cl` [Compound 8, (R)-1-(2-chloro-pyridin-3-yl)-ethyl (1-methyl-4-(5-((3-methyl-bicyclo[1.1.1]-pentan-1-yl)-carbamoyl)-pyridin-2-yl)-1H-1,2,3-triazol-5-yl)carbamate]: the EC50 stood at 30.4 nM.
Turning to `C[C@@H](OC(=O)Nc1c(-c2ccc(C(=O)Nc3ccc(F)nc3)cn2)nnn1C)c1cccnc1Cl` [Compound 9, (R)-1-(2-chloro-pyridin-3-yl)-ethyl (4-(5-((6-fluoropyridin-3-yl)carbam-oyl)pyridin-2-yl)-1-methyl-1H-1,2,3-triazol-5-yl)carbamate], the 50% effective concentration (EC50) was 325 nM.
Regarding `C[C@@H](OC(=O)Nc1c(-c2ccc(C(=O)NC34CC(C3)C4)cn2)nnn1C)c1cccnc1Cl` [Compound 10, (R)-1-(2-chloro-pyridin-3-yl)-ethyl (4-(5-(bicyclo[1.1.1]-pentan-1-yl-carbamoyl)-pyridin-2-yl)-1-methyl-1H-1,2,3-triazol-5-yl)carbamate], the EC50 amounted to 439 nM.
Then `COC12CC(NC(=O)c3ccc(-c4nnn(C)c4NC(=O)O[C@H](C)c4cccnc4Cl)nc3)(C1)C2` [Compound 11, (R)-1-(2-chloro-pyridin-3-yl)-ethyl (4-(5-((3-methoxybicyclo-[1.1.1]pentan-1-yl)carbamoyl)-pyridin-2-yl)-1-methyl-1H-1,2,3-triazol-5-yl)carbamate], with 62.7 nM.
For `COC(=O)C12CC(NC(=O)c3ccc(-c4nnn(C)c4NC(=O)O[C@H](C)c4cccnc4Cl)nc3)(C1)C2` [Compound 12, (R)-methyl 3-(6-(5-(((1-(2-chloro-pyridin-3-yl)-ethoxy)carbon-yl)amino)-1-methyl-1H-1,2,3-triazol-4-yl)nicotinamido)-bicyclo[1.1.1]-pentane-1-carbox-ylate], the 50% effective concentration (EC50) worked out at 26.5 nM.
Consider `C[C@@H](OC(=O)Nc1c(-c2ccc(C(=O)NC34CC(CO)(C3)C4)cn2)nnn1C)c1cccnc1Cl` [Compound 13], for which the EC50 amounted to 251 nM.
As to `C[C@@H](OC(=O)Nc1c(-c2ccc(C(=O)Nc3ccccc3)cn2)nnn1C)c1cccnc1Cl` [Compound 14, (R)-1-(2-chloro-pyridin-3-yl)-ethyl (1-methyl-4-(5-(phenyl-carbamoyl)-pyridin-2-yl)-1H-1,2,3-triazol-5-yl)carbamate], the concentration for a half-maximal effect (EC50) was 256 nM.
For the compound `C[C@@H](OC(=O)Nc1c(-c2ccc(C(=O)NC34CC(C(F)(F)F)(C3)C4)cn2)nnn1C)c1cccnc1Cl` [Compound 15, (R)-1-(2-chloro-pyridin-3-yl)ethyl (1-methyl-4-(5-((3-(trifluoro-methyl)bicyclo-[1.1.1]pentan-1-yl)carbamoyl)-pyridin-2-yl)-1H-1,2,3-triazol-5-yl)carbamate], the EC50 amounted to 26.2 nM.
With `C[C@@H](OC(=O)Nc1c(-c2ccc(C(=O)NC3CCOCC3)cn2)nnn1C)c1cccnc1Cl` [Compound 16, (R)-1-(2-chloro-pyridin-3-yl)-ethyl (1-methyl-4-(5-((tetrahydro-2H-pyran-4-yl)-carbamoyl)-pyridin-2-yl)-1H-1,2,3-triazol-5-yl)carbamate], the concentration giving a half-maximal response (EC50) was determined as 3590 nM.
`C[C@@H](OC(=O)Nc1c(-c2ccc(C(=O)Nc3ccc(N4CCOCC4)cc3)cn2)nnn1C)c1cccnc1Cl` [Compound 17, (R)-1-(2-chloro-pyridin-3-yl)-ethyl (1-methyl-4-(5-((4-morph-olinophenyl)-carbamoyl)-pyridin-2-yl)-1H-1,2,3-triazol-5-yl)carbamate]: the 50% effective concentration (EC50) is 649 nM.
Regarding `C[C@@H](OC(=O)Nc1c(-c2ccc(C(=O)NC34CC(C#N)(C3)C4)cn2)nnn1C)c1cc(F)cnc1F` [Compound 18, (R)-1-(2,5-difluoropyridin-3-yl)ethyl (4-(5-((3-cyanobicyclo[1.1.1]pentan-1-yl)carbamoyl)pyridin-2-yl)-1-methyl-1H-1,2,3-triazol-5-yl)carbamate], the EC50 was 91.2 nM.
`C[C@@H](OC(=O)Nc1c(-c2ccc(C(=O)Nc3ccnc(C(F)(F)F)c3)cn2)nnn1C)c1cc(F)cnc1F` [Compound 19, (R)-1-(2,5-difluoropyridin-3-yl)ethyl (1-methyl-4-(5-((2-(trifluoromethyl)pyridin-4-yl)carbamoyl)pyridin-2-yl)-1H-1,2,3-triazol-5-yl)carbamate]: the 50% effective concentration (EC50) came to 16.6 nM.
Consider `C[C@@H](OC(=O)Nc1c(-c2ccc(C(=O)NC34CC(F)(C3)C4)cn2)nnn1C)c1cc(F)cnc1F` [Compound 20, (R)-1-(2,5-difluoro-pyridin-3-yl)ethyl (4-(5-((3-fluoro-bicyclo[1.1.1]-pentan-1-yl)-carbamoyl)pyridin-2-yl)-1-methyl-1H-1,2,3-triazol-5-yl)carbamate], for which the concentration for a half-maximal effect (EC50) is 313 nM.
Turning to `C[C@@H](OC(=O)Nc1c(-c2ccc(C(=O)NC34CC(Cl)(C3)C4)cn2)nnn1C)c1cc(F)cnc1F` [Compound 21, (R)-1-(2,5-difluoro-pyridin-3-yl)ethyl (4-(5-((3-chloro-bicyclo[1.1.1]-pentan-1-yl)-carbamoyl)pyridin-2-yl)-1-methyl-1H-1,2,3-triazol-5-yl)carbamate], the EC50 was 44.8 nM.

The values above are taken from US12503454B2, “LPA receptor antagonists and uses thereof” (Gilead Sciences, Inc., priority 2021, dated 2025).
